According to patent US6914045B2, “Glycopeptide antibiotics” (Wyeth Holdings Corporation, priority 2001, dated 2005):
≈ marks a conversion by molar mass, not a printed value.

Assays:
Test in all cases: in vitro antibacterial evaluation, MIC by broth dilution
Assay type in all cases: cell-based
Escherichia coli = conditions: 18 hours at 35° C.
Staphylococcus sp. = conditions: broth dilution, 18 hours at 35° C.
Method in brief: (§1)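 MIC, the lowest antibiotic concentration preventing growth, was read across 64-0.06 μg/mL with 5×10^5 CFU/mL inoculum. Method followed NCCLS M7-A2 broth dilution using Mueller-Hinton II; Gram-positive strains covered recent methicillin-, penicillin- and/or vancomycin-resistant clinical isolates.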

Enterococcus sp. = conditions: broth dilution, 18 hours at 35° C.
Method in brief: as §1

Streptococcus sp. = conditions: broth dilution, 18 hours at 35° C.
Method in brief: as §1

- MIC Escherichia coli (ATCC 25922) (Escherichia coli): 64 µg/mL (≈ 44.7 µM)
- MIC Escherichia coli (GC 4559) (Escherichia coli): >64 µg/mL
- MIC Escherichia coli (GC 4560) (Escherichia coli): 8 µg/mL (≈ 5.59 µM)
- MIC Staphylococcus aureus (ATCC 29213) (Staphylococcus sp.; strain ATCC 29213): 4 µg/mL (≈ 2.79 µM)
- MIC Staphylococcus aureus (GC 1131) (Staphylococcus sp.; strain GC 1131): 8 µg/mL (≈ 5.59 µM)
- MIC Staphylococcus aureus (GC 3051) (Staphylococcus sp.; strain GC 3051): 4 µg/mL (≈ 2.79 µM)
- MIC Staphylococcus aureus (GC 3053) (Staphylococcus sp.; strain GC 3053): 4 µg/mL (≈ 2.79 µM)
- MIC Staphylococcus aureus (GC 4541) (Staphylococcus sp.; strain GC 4541): 8 µg/mL (≈ 5.59 µM)
- MIC Staphylococcus aureus (GC 4542) (Staphylococcus sp.; strain GC 4542): 4 µg/mL (≈ 2.79 µM)
- MIC Staphylococcus aureus-SMITH (GC 4543) (Staphylococcus sp.; strain GC 4543): 4 µg/mL (≈ 2.79 µM)
- MIC Staphylococcus aureus (GC 4544) (Staphylococcus sp.; strain GC 4544): 8 µg/mL (≈ 5.59 µM)
- MIC Staphylococcus aureus (GC 4545) (Staphylococcus sp.; strain GC 4545): 4 µg/mL (≈ 2.79 µM)
- MIC Coagulase Negative Staphylococcus (GC 4547) (Staphylococcus sp.; strain GC 4547): 4 µg/mL (≈ 2.79 µM)
- MIC Coagulase Negative Staphylococcus (GC 4548) (Staphylococcus sp.; strain GC 4548): 4 µg/mL (≈ 2.79 µM)
- MIC Coagulase Negative Staphylococcus (GC 4549) (Staphylococcus sp.; strain GC 4549): 4 µg/mL (≈ 2.79 µM)
- MIC Coagulase Negative Staphylococcus (GC 4551) (Staphylococcus sp.; strain GC 4551): 4 µg/mL (≈ 2.79 µM)
- MIC Coagulase Negative Staphylococcus (GC 6257) (Staphylococcus sp.; strain GC 6257): 4 µg/mL (≈ 2.79 µM)
- MIC Enterococcus avium (GC 4558) (Enterococcus sp.): 4 µg/mL (≈ 2.79 µM)
- MIC Enterococcus faecalis (ATCC 29212) (Enterococcus sp.): 8 µg/mL (≈ 5.59 µM)
- MIC Enterococcus faecalis (GC 2242) (Enterococcus sp.): 8 µg/mL (≈ 5.59 µM)
- MIC Enterococcus faecalis (GC 2691) (Enterococcus sp.): 8 µg/mL (≈ 5.59 µM)
- MIC Enterococcus faecalis (GC 3059) (Enterococcus sp.): 8 µg/mL (≈ 5.59 µM)
- MIC Enterococcus faecalis (GC 4552) (Enterococcus sp.): 8 µg/mL (≈ 5.59 µM)
- MIC Enterococcus faecalis (GC 4553) (Enterococcus sp.): 8 µg/mL (≈ 5.59 µM)
- MIC Enterococcus faecalis (GC 4554) (Enterococcus sp.): 8 µg/mL (≈ 5.59 µM)
- MIC Enterococcus faecalis (GC 6189) (Enterococcus sp.): 8 µg/mL (≈ 5.59 µM)
- MIC Enterococcus faecium (GC 2243) (Enterococcus sp.): 8 µg/mL (≈ 5.59 µM)
- MIC Enterococcus faecium (GC 4556) (Enterococcus sp.): 8 µg/mL (≈ 5.59 µM)
- MIC Enterococcus faecium (GC 4557) (Enterococcus sp.): 8 µg/mL (≈ 5.59 µM)
- MIC Enterococcus faecalis (ATCC 29212) (Enterococcus sp.; inoculum 5×10^5 CFU/mL, strain ATCC 29212): 8 µg/mL (≈ 5.59 µM)
- MIC Enterococcus faecalis (GC 2242) (Enterococcus sp.; inoculum 5×10^5 CFU/mL, strain GC 2242): 8 µg/mL (≈ 5.59 µM)
- MIC Enterococcus faecium (GC 2243) (Enterococcus sp.; inoculum 5×10^5 CFU/mL, strain GC 2243): 8 µg/mL (≈ 5.59 µM)
- MIC Enterococcus faecalis (GC 2691) (Enterococcus sp.; inoculum 5×10^5 CFU/mL, strain GC 2691): 8 µg/mL (≈ 5.59 µM)
- MIC Enterococcus faecalis (GC 3059) (Enterococcus sp.; inoculum 5×10^5 CFU/mL, strain GC 3059): 8 µg/mL (≈ 5.59 µM)
- MIC Enterococcus faecalis (GC 4552) (Enterococcus sp.; inoculum 5×10^5 CFU/mL, strain GC 4552): 8 µg/mL (≈ 5.59 µM)
- MIC Enterococcus faecalis (GC 4553) (Enterococcus sp.; inoculum 5×10^5 CFU/mL, strain GC 4553): 8 µg/mL (≈ 5.59 µM)
- MIC Enterococcus faecalis (GC 4554) (Enterococcus sp.; inoculum 5×10^5 CFU/mL, strain GC 4554): 8 µg/mL (≈ 5.59 µM)
- MIC Enterococcus faecium (GC 4556) (Enterococcus sp.; inoculum 5×10^5 CFU/mL, strain GC 4556): 8 µg/mL (≈ 5.59 µM)
- MIC Enterococcus faecium (GC 4557) (Enterococcus sp.; inoculum 5×10^5 CFU/mL, strain GC 4557): 8 µg/mL (≈ 5.59 µM)
- MIC Enterococcus avium (GC 4558) (Enterococcus sp.; inoculum 5×10^5 CFU/mL, strain GC 4558): 4 µg/mL (≈ 2.79 µM)
- MIC Enterococcus faecalis (GC 6189) (Enterococcus sp.; inoculum 5×10^5 CFU/mL, strain GC 6189): 8 µg/mL (≈ 5.59 µM)
- MIC Streptococcus agalactiae (GC 4564) (Streptococcus sp.): 0.12 µg/mL (≈ 0.0838 µM)
- MIC Streptococcus pneumoniae (ATCC 6301) (Streptococcus sp.): <0.06 µg/mL
- MIC Streptococcus pneumoniae (GC 1894) (Streptococcus sp.): <0.06 µg/mL
- MIC Streptococcus pneumoniae (GC 4565) (Streptococcus sp.): <0.06 µg/mL
- MIC Streptococcus pyogenes (GC 4563) (Streptococcus sp.): 0.12 µg/mL (≈ 0.0838 µM)
- MIC Streptococcus pneumoniae (ATCC 6301) (Streptococcus sp.; inoculum 5×10^5 CFU/mL, strain ATCC 6301): <0.06 µg/mL
- MIC Streptococcus pneumoniae (GC 1894) (Streptococcus sp.; inoculum 5×10^5 CFU/mL, strain GC 1894): <0.06 µg/mL
- MIC Streptococcus pyogenes (GC 4563) (Streptococcus sp.; inoculum 5×10^5 CFU/mL, strain GC 4563): 0.12 µg/mL (≈ 0.0838 µM)
- MIC Streptococcus agalactiae (GC 4564) (Streptococcus sp.; inoculum 5×10^5 CFU/mL, strain GC 4564): 0.12 µg/mL (≈ 0.0838 µM)
- MIC Streptococcus pneumoniae (GC 4565) (Streptococcus sp.; inoculum 5×10^5 CFU/mL, strain GC 4565): <0.06 µg/mL
SMILES: CC(c1ccccc1)C1NC(=O)CNC(=O)C(CO)NC(=O)C(C(O)C2CNC(=N)N2C2OC(CO)C(O)C(O)C2O)NC(=O)C(C(O)C2CNC(=N)N2)NC(=O)C(Cc2ccc(OC3OC(CO)C(OC4OC5COC6(CCC(C(C)(C)C)CC6)OC5C(O)C4O)C(O)C3O)cc2)NC1=O (stereo not shown) [Example 208]
- MIC Staphylococcus haemolyticus (GC 4546) (Staphylococcus sp.; strain GC 4546): 4 µg/mL (≈ 2.79 µM)
